Assay results as given in ChEMBL document CHEMBL3612037, “Design and synthesis of some new pyrazolyl-pyrazolines as potential anti-inflammatory, analgesic and antibacterial agents” (Eur J Med Chem, 2015).
Activity calls are given as the source filed them. The calls are words filed in the database; no cut-off is given here.

Assays:
[1] = tested on: Rattus norvegicus; experiment: Analgesic activity in Wistar rat assessed as tail flick latency time at 50 mg/kg, po measured 60 mins post dose by tail flick method (reference value: 3.47 +/- 0.1 secs); type: functional
[2] = tested on: Rattus norvegicus; experiment: Analgesic activity in Wistar rat assessed as tail flick latency time at 50 mg/kg, po measured 0 mins post dose by tail flick method (reference value: 3.5 +/- 0.8 secs); type: functional
[3] = Acute toxicity in Swiss mouse at 100 to 1000 mg/kg, po measured 48 hrs post dose; type: organism-based; conditions: in vivo
[4] = tested on: Rattus norvegicus; experiment: Anti-inflammatory activity in Wistar rat assessed as inhibition of carrageenan-induced paw oedema at 50 mg/kg, po dosed 30 mins before carrageenan challenge and measured 60 mins post carrageenan challenge; type: functional
[5] = tested on: Rattus norvegicus; experiment: Anti-inflammatory activity in Wistar rat assessed as inhibition of carrageenan-induced paw oedema at 50 mg/kg, po dosed 30 mins before carrageenan challenge and measured 120 mins post carrageenan challenge; type: functional
[6] = tested on: Aeromonas hydrophila; experiment: Antimicrobial activity against Aeromonas hydrophila at 20 uL of 1 mg/ml by disc diffusion assay; type: functional; conditions: for zone of inhibition at 1000 µg/mL: read-out: IZ
[7] = tested on: Escherichia coli; experiment: Antimicrobial activity against Escherichia coli at 20 uL of 1 mg/ml by disc diffusion assay; type: functional; conditions: for zone of inhibition at 1000 µg/mL: read-out: IZ
[8] = tested on: Mus musculus; experiment: Acute toxicity in Swiss mouse assessed as induction of depression incidence at 100 to 1000 mg/kg, po measured 48 hrs post dose; type: organism-based; conditions: in vivo
[9] = tested on: Rattus norvegicus; experiment: Analgesic activity in Wistar rat assessed as tail flick latency time at 50 mg/kg, po measured 90 mins post dose by tail flick method (reference value: 3.7 +/- 0.1 secs); type: functional
[10] = tested on: Mus musculus; experiment: Acute toxicity in Swiss mouse assessed as induction of diarrhoea incidence at 100 to 1000 mg/kg, po measured 48 hrs post dose; type: organism-based; conditions: in vivo
[11] = tested on: Rattus norvegicus; experiment: Anti-inflammatory activity in Wistar rat assessed as inhibition of carrageenan-induced paw oedema at 50 mg/kg, po dosed 30 mins before carrageenan challenge and measured 30 mins post carrageenan challenge; type: functional
[12] = tested on: Staphylococcus; experiment: Antimicrobial activity against Staphylococcus citreus at 20 uL of 1 mg/ml by disc diffusion assay; type: functional; conditions: for zone of inhibition at 1000 µg/mL: read-out: IZ
[13] = tested on: Rattus norvegicus; experiment: Analgesic activity in Wistar rat assessed as tail flick latency time at 50 mg/kg, po measured 30 mins post dose by tail flick method (reference value: 3.46 +/- 0.1 secs); type: functional
[14] = tested on: Staphylococcus aureus; experiment: Antimicrobial activity against Staphylococcus aureus at 20 uL of 1 mg/ml by disc diffusion assay; type: functional; conditions: for zone of inhibition at 1000 µg/mL: read-out: IZ

| SMILES | Time [1] [s] | Time [2] [s] | LD50 at 48 h [3] [mg/kg] | inhibition in vivo at 50 mg/kg [4] [%] | inhibition in vivo at 50 mg/kg [5] [%] | zone of inhibition at 1000 µg/mL [6] [mm] | inhibition zone (IZ) [7] | Activity [8] | Time [9] [s] | Activity [10] | inhibition in vivo at 50 mg/kg [11] [%] | zone of inhibition at 1000 µg/mL [12] [mm] | Time [13] [s] | zone of inhibition at 1000 µg/mL [14] [mm] | inhibition zone (IZ) [6] | zone of inhibition at 1000 µg/mL [7] [mm] | inhibition zone (IZ) [12] | inhibition zone (IZ) [14] |
| --- | --- | --- | --- | --- | --- | --- | --- | --- | --- | --- | --- | --- | --- | --- | --- | --- | --- | --- |
| CC(=O)N1N=C(c2ccc(Cl)cc2)CC1c1cn(-c2ccccc2)nc1-c1ccc(Cl)c(Cl)c1 (stereo not drawn) | 5.9 | 3.5 | 500 | 57.2 | 66.4 | 19 | inactive | Non-toxic | 5.1 | Non-toxic | 45.7 | 13 | 5.5 | 21 | – | – | – | – |
| O=CN1N=C(c2ccc(Cl)cc2)CC1c1cn(-c2ccccc2)nc1-c1ccc(Cl)c(Cl)c1 (stereo not drawn) | 4.7 | 3 | 500 | 51.1 | 57.8 | – | inactive | Non-toxic | 4.3 | Non-toxic | 35.1 | 21 | 4.5 | 18 | inactive | – | – | – |
| Cc1ccc(C2=NN(c3ccc([N+](=O)[O-])cc3)C(c3cn(-c4ccccc4)nc3-c3ccc(Cl)c(Cl)c3)C2)cc1 (stereo not drawn) | 7.4 | 3.4 | 500 | 72.5 | 71.9 | 19 | – | Non-toxic | 6.6 | Non-toxic | 57.4 | 16 | 7 | 21 | – | 16 | – | – |
| CC(=O)N1N=C(c2ccc(F)cc2)CC1c1cn(-c2ccccc2)nc1-c1ccc(Cl)c(Cl)c1 (stereo not drawn) | 6.5 | 3.5 | 500 | 59.5 | 72.7 | 19 | – | Non-toxic | 6.6 | Non-toxic | 45.7 | – | 6.8 | – | – | 12 | inactive | inactive |
| CC(=O)N1N=C(c2ccc(C)cc2)CC1c1cn(-c2ccccc2)nc1-c1ccc(Cl)c(Cl)c1 (stereo not drawn) | 5.5 | 3.5 | 500 | 59.5 | 70.3 | – | – | Non-toxic | 5.5 | Non-toxic | 27.6 | – | 5.3 | 19 | inactive | 18 | inactive | – |
| Cc1ccc(C2=NN(C=O)C(c3cn(-c4ccccc4)nc3-c3ccc(Cl)c(Cl)c3)C2)cc1 (stereo not drawn) | 4.6 | 3.4 | 500 | 53.4 | 60.9 | – | – | Non-toxic | 4.4 | Non-toxic | 35.1 | 16 | 4.7 | – | inactive | 20 | – | inactive |
| O=CN1N=C(c2ccc(F)cc2)CC1c1cn(-c2ccccc2)nc1-c1ccc(Cl)c(Cl)c1 (stereo not drawn) | 6.4 | 3.5 | 500 | 56.5 | 60.9 | 10 | – | Non-toxic | 6.6 | Non-toxic | 37.2 | 18 | 6.3 | 13 | – | 12 | – | – |
| Cc1ccc(C2=NN(c3ccccc3)C(c3cn(-c4ccccc4)nc3-c3ccc(Cl)c(Cl)c3)C2)cc1 (stereo not drawn) | 7.1 | 3.3 | 500 | 58.8 | 62.5 | 18 | – | Non-toxic | 6.6 | Non-toxic | 46.8 | – | 6.7 | 15 | – | 20 | inactive | – |
| O=[N+]([O-])c1ccc(N2N=C(c3ccc(Cl)cc3)CC2c2cn(-c3ccccc3)nc2-c2ccc(Cl)c(Cl)c2)cc1 (stereo not drawn) | 7 | 3.4 | 500 | 57.2 | 69.5 | 21 | – | Non-toxic | 6.6 | Non-toxic | 48.9 | 18 | 6.9 | 22 | – | 31 | – | – |
| Fc1ccc(C2=NNC(c3cn(-c4ccccc4)nc3-c3ccc(Cl)c(Cl)c3)C2)cc1 (stereo not drawn) | 4.8 | 3.1 | 500 | 40.5 | 46.1 | 16 | inactive | Non-toxic | 4.2 | Non-toxic | 45.7 | 23 | 4.5 | 14 | – | – | – | – |
| O=[N+]([O-])c1ccc(N2N=C(c3ccc(F)cc3)CC2c2cn(-c3ccccc3)nc2-c2ccc(Cl)c(Cl)c2)cc1 (stereo not drawn) | 5.7 | 3.8 | 500 | 60.3 | 65.6 | – | inactive | Non-toxic | 5.2 | Non-toxic | 45.7 | 21 | 5.1 | 20 | inactive | – | – | – |
| Cc1ccc(C2=NNC(c3cn(-c4ccccc4)nc3-c3ccc(Cl)c(Cl)c3)C2)cc1 (stereo not drawn) | 6.3 | 3.6 | 500 | 56.5 | 48.4 | 11 | – | Non-toxic | 6.5 | Non-toxic | 38.3 | – | 5.9 | 19 | – | 15 | inactive | – |
